# Measured values: article PMC8691200 (Journal of Chemical Information and Modeling, 2021)
# Entries after “also recorded” stand apart in the source; their conditions may differ.
# Key:
# SARS-CoV-2 [1] = settings: Vero E6 cells; cited from earlier work
# SARS-CoV-2 [2] = settings: Vero E6 cells, real-time polymerase chain reaction; cited from earlier work
# [3] = tested on: SARS-CoV-2 MEX-BC2/2020 strain; format: cell-based
compound,measurement,setting,value
COc1ccc2cc1Oc1ccc(cc1)C[C@H]1c3c(cc4c(c3Oc3cc5c(cc3OC)CCN(C)[C@@H]5C2)OCO4)CCN1C [Cepharanthine],CPE (% efficacy),SARS-CoV-2 [1],92%
"CCOC(=O)c1c(CSc2ccccc2)n(C)c2cc(Br)c(O)c(CN(C)C)c12 [Compound 1, Arbidol]",cytotoxicity in viability assays,Vero E6 cells,dose-dependent trend of cytotoxicity
same,safety ratio,Vero E6 cells; African green monkey,2.3
same,compound precipitation or recrystallization in micrographs,"25 μM, 96 h incubation with infected cells",no observed compound precipitation or recrystallization
same,aqueous solubility,solubilized in DMSO or buffer (for salts),good aqueous solubility
same,maximum inhibition of virus entry,SARS-CoV-2 [2],70%
N#C[C@@]1(c2ccc3c(N)ncnn23)O[C@H](CO)[C@@H](O)[C@H]1O [GS-441524],maximum % inhibition observed,[3],100%
same,prevention of virus-induced CPE,[3],prevented completely the virus-induced CPE; also recorded: completely prevented the virus-induced CPE
C=C[C@@]1(C)CC(=O)[C@]2(O)[C@@]3(C)[C@@H](O)CCC(C)(C)[C@@H]3[C@H](OC(=O)CCN(C)C)[C@H](OC(C)=O)[C@@]2(C)O1.Cl [NKH477],CPE (% efficacy),SARS-CoV-2 [1],45%
CC1=C[C@]23C(=O)[C@@H](C=C(CO)[C@@H](O)[C@]2(O)[C@H]1O)[C@H]1[C@@H](C[C@H]3C)C1(C)C [ingenol],CPE (% efficacy),SARS-CoV-2 [1],38.2%
CC(CN(C)C)CN1c2ccccc2CCc2ccccc21 (centres unmarked) [trimipramine],CPE (% efficacy),SARS-CoV-2 [1],48%
